Laboratory results taken from US20260265304A1, “PEPTIDE INHIBITORS OF FOCAL ADHESION KINASE ACTIVITY AND USES THEREOF” (Arizona Board of Regents on Behalf of the University of …, priority 2019, published 2026).
Like-named read-outs stand apart in the source and are kept apart here. Positions of bridges follow the written chain, without caps; N, C: chain ends. Non-standard residues stand in square brackets, D forms with d. Residues, ends and D or L forms follow the SMILES beside them. *: point of attachment. Myristoyl = CCCCCCCCCCCCCC(=O)*; R8 = C=CCCCCCC[C@@](C)(N)C(=O)O; R5 = C=CCCC[C@@](C)(N)C(=O)O; S5 = C=CCCC[C@](C)(N)C(=O)O

Legend:
[1] = molecular target: T1, FAK FAT domain (biotinylated Avitag-FAT protein) (Homo sapiens, UniProt Q05397); experiment: Surface plasmon resonance (SPR) binding to immobilised FAT protein; conditions: for Kd: FAT protein immobilised, peptide 200 μM-0.01 μM, 1:1 binding model; for binding and inhibitory properties (SPR/FP) in words, compared to 1907: SAR discussion of SPR and FP data
T1 construct: biotinylated Avitag-FAT protein was diluted in running buffer
T1 sequence (Q05397 914-1045 limits assumed): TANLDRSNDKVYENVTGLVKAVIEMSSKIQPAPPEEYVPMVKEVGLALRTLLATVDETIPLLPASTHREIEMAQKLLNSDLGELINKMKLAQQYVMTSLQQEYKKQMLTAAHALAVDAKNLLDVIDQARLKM
Experimental: SPR binding studies were performed on a ForteBio Pioneer FE SPR system. In brief, a SADH Streptavidin in Dextran Hydrogel biosensor (ForteBio) was docked onto the flow cell and preconditioned with two injections of 10 mM NaOH, 1 M NaCl for 1 min at 50 μL/min. […] Empty channel 2 served as the reference control. After achieving a stable baseline, a concentration series (200 μM-0.01 μM) of peptide was prepared in final running buffer (100 mM Tris-HCl, 200 mM NaCl, 0.05% Tween-20, 5% DMSO) and injected using the OneStep gradient injection method at a flow rate of 75 μL/min. […] Raw SPR data were appropriately processed in Qdat software (ForteBio) by normalizing the baseline prior to injection, aligning the channels, subtraction of the reference channel, and blank subtraction. Kinetic data were fitted to a pseudo-first order 1:1 interaction binding model using to calculate KD. In addition, a steady-state model and Req data points were used to validate the binding affinity. Visual inspection of the SPR sensograms was performed to verify appropriate model fitting, lack of mass transport effects, return to baseline, and lack of irregular kinetics.

[2] = molecular target: T2, FAK FAT domain (paxillin-FAT binding) (Homo sapiens, UniProt Q05397); experiment: Competition fluorescence polarization (FP) assay, inhibition of TAMRA-LD2 binding to FAT
T2 construct: FP Buffer containing 20 μM FAT and 0.1 μM TAMRA-LD2
T2 sequence (Q05397 914-1045 limits assumed): T1 sequence (Q05397 914-1045 limits assumed)
Experimental: The FP assay buffer used was 20 mM Tris, 200 mM NaCl, 0.05% β-me, 0.1% Triton X-100, 5% glycerol, and 1× Halt protease inhibitor cocktail. […] Bodipy TMR FP optical module (2100-4100) was used as the mirror.
Wells with no FAT were used as a baseline value which was subtracted from the raw values to produce ΔmP values. The plate was read at every hour for four hours to test for time differences in IC50. The titration data was processed through GraphPad Prism to produce a dose response curve and a calculated IC50 with standard error (SE). A four-parameter dose-response inhibition model was utilized and the bottom fit was constrained to the lower plateau of the curve. Ki was determined from the following calculation:
P0 is the concentration of free protein and KD is calculated from the saturation curve. 150 is calculated by the following equation:
where PT is the total protein concentration, LT is the total labeled-ligand concentration, P0 is the positive root of P0^2+(KD+LT)*P0−PT, PL0=P−P0, PL50=PL0/2, L0=LT-PL0, and L50=LT-PL50.

Row | Kd ([1]; read-out: SPR KD) | SMILES | Kd ([1]; SPR KD) | Ki [2] | Ki ([2]; read-out: FP Ki) | binding and inhibitory properties (SPR/FP) in words, compared to 1907 [1]
1 | 6.96 µM | CC(=O)N[C@@H](CC(N)=O)C(=O)N[C@@H](CC(C)C)C(=O)N[C@]1(C)CCCCCCC=CCCC[C@@](C)(C(=O)N[C@@H](CCC(=O)O)C(=O)N[C@@H](CC(C)C)C(=O)N[C@@H](CC(N)=O)C(N)=O)NC(=O)[C@H](CC(C)C)NC(=O)[C@H](CC(C)C)NC(=O)[C@H](CCCNC(=N)N)NC(=O)[C@H](CC(=O)O)NC(=O)[C@H](CC(C)C)NC(=O)[C@H](C)NC1=O [Peptide 2009, Ac-NLR8ALDRLLS5ELN-NH2] (Ac-NL[R8]ALDRLL[S5]ELN-NH2; staple 3-10) | – | – | 26.7 µM | –
2 | 13.7 µM | CC(=O)N[C@@H](CC(=O)O)C(=O)N[C@@H](CC(C)C)C(=O)N[C@]1(C)CCCCCCC=CCCC[C@@](C)(C(=O)N[C@@H](CCC(=O)O)C(=O)N[C@@H](CC(C)C)C(=O)N[C@@H](CC(=O)O)C(N)=O)NC(=O)[C@H](CC(C)C)NC(=O)[C@H](CC(C)C)NC(=O)[C@H](CCCNC(=N)N)NC(=O)[C@H](CC(=O)O)NC(=O)[C@H](CC(C)C)NC(=O)[C@H](CCC(=O)O)NC1=O [Peptide 1913, Ac-DLR8ELDRLLS5ELD-NH2] (Ac-DL[R8]ELDRLL[S5]ELD-NH2; staple 3-10) | – | – | 21.8 µM | –
3 | 155 µM | CC(=O)N[C@@H](CC(N)=O)C(=O)N[C@@H](CC(C)C)C(=O)N[C@]1(C)CCCCCCC=CCCC[C@@](C)(C(=O)N[C@@H](CCC(=O)O)C(=O)N[C@@H](Cc2c[nH]c3ccccc23)C(=O)N[C@@H](CC(N)=O)C(N)=O)NC(=O)[C@H](CC(C)C)NC(=O)[C@H](CC(C)C)NC(=O)[C@H](CCCNC(=N)N)NC(=O)[C@H](CC(=O)O)NC(=O)[C@H](Cc2c[nH]c3ccccc23)NC(=O)[C@H](CCC(=O)O)NC1=O [Peptide 1933, Ac-NLR8EWDRLLS5EWN-NH2] (Ac-NL[R8]EWDRLL[S5]EWN-NH2; staple 3-10) | – | – | 281 µM | worse binding and inhibitory properties compared to 1907
4 | 911 µM | CC(=O)N[C@@H](CC(N)=O)C(=O)N[C@@H](CC(C)C)C(=O)N[C@@H](CO)C(=O)N[C@@H](CCC(=O)O)C(=O)N[C@]1(C)CCCC=CCCC[C@@](C)(C(=O)N[C@@H](CC(C)C)C(=O)N[C@@H](CC(C)C)C(=O)N[C@@H](CCC(=O)O)C(=O)N[C@@H](CC(C)C)C(=O)N[C@@H](CC(N)=O)C(N)=O)NC(=O)[C@H](CCCNC(=N)N)NC(=O)[C@H](CC(=O)O)NC1=O [Peptide 2022, Ac-NLSER5DRS5LLELN-NH2] (Ac-NLSE[R5]DR[S5]LLELN-NH2; staple 5-8) | – | – | 341 µM | did not show much activity compared to 1907
5 | > 200 µM | CC(=O)N[C@@H](CC(N)=O)C(=O)N[C@@H](CC(C)C)C(=O)N[C@@H](CO)C(=O)N[C@]1(C)CCCCCCC=CCCC[C@@](C)(C(=O)N[C@@H](CC(C)C)C(=O)N[C@@H](CC(N)=O)C(N)=O)NC(=O)[C@H](CC(C)C)NC(=O)[C@H](CC(C)C)NC(=O)[C@H](CC(C)C)NC(=O)[C@H](CCCNC(=N)N)NC(=O)[C@H](CC(=O)O)NC(=O)[C@H](CC(C)C)NC1=O [Peptide 1905, Ac-NLSR8LDRLLLS5LN-NH2] (Ac-NLS[R8]LDRLLL[S5]LN-NH2; staple 4-11) | – | – | – | no binding and inhibitory properties
6 | 64.3 µM | CC(=O)N[C@@H](CC(N)=O)C(=O)N[C@@H](CC(C)C)C(=O)N[C@@H](CO)C(=O)N[C@@H](CCC(=O)O)C(=O)N[C@]1(C)CCCCCCC=CCCC[C@@](C)(C(=O)N[C@@H](CC(N)=O)C(N)=O)NC(=O)[C@H](CCC(=O)O)NC(=O)[C@H](CC(C)C)NC(=O)[C@H](CC(C)C)NC(=O)[C@H](CC(C)C)NC(=O)[C@H](CCCNC(=N)N)NC(=O)[C@H](CC(=O)O)NC1=O [Peptide 1914, Ac-NLSER8DRLLLES5N-NH2] (Ac-NLSE[R8]DRLLLE[S5]N-NH2; staple 5-12) | – | – | – | limited activity compared to 1907

Second part, the compound before the results:

Row | SMILES | Kd ([1]; read-out: SPR KD) | Kd ([1]; SPR KD) | Ki [2] | Ki ([2]; read-out: FP Ki) | binding and inhibitory properties (SPR/FP) in words, compared to 1907 [1]
7 | CC(=O)N[C@@H](CC(N)=O)C(=O)N[C@@H](CC(C)C)C(=O)N[C@]1(C)CCCCCCC=CCCC[C@@](C)(C(=O)N[C@@H](CCC(=O)O)C(=O)N[C@@H](CC(C)C)C(=O)N[C@@H](CC(N)=O)C(N)=O)NC(=O)[C@H](CC(C)C)NC(=O)[C@H](CC(C)C)NC(=O)[C@H](C)NC(=O)[C@H](CC(=O)O)NC(=O)[C@H](CC(C)C)NC(=O)[C@H](C)NC1=O [Peptide 2010, Ac-NLR8ALDALLS5ELN-NH2] (Ac-NL[R8]ALDALL[S5]ELN-NH2; staple 3-10) | – | 12.6 µM | 68.5 µM | – | –
8 | CSCC[C@@H]1NC(=O)[C@H](Cc2ccccc2)NC(=O)[C@H](CCCNC(=N)N)NC(=O)[C@H](CC(C)C)NC(=O)[C@H](CCCNC(=N)N)NC(=O)[C@H](C)NC(=O)[C@](C)(NC(=O)[C@H](CCCNC(=N)N)NC(=O)[C@H](CCCNC(=N)N)NC(C)=O)CCCCCCC=CCCC[C@@](C)(C(=O)N[C@@H](CCC(N)=O)C(=O)N[C@@H](Cc2ccccc2)C(=O)N[C@@H](Cc2ccc(O)cc2)C(N)=O)NC1=O [Peptide 1929, Ac-RRR8ARLRFMS5QFY-NH2] (Ac-RR[R8]ARLRFM[S5]QFY-NH2; staple 3-10) | 77.6 µM | – | – | > 1250 µM | did not have comparable activity to LD2-derived 1907
9 | CCCCCCCCCCCCCC(=O)NCCCC[C@@H]1NC(=O)[C@H](CC(=O)O)NC(=O)[C@H](CC(C)C)NC(=O)[C@H](CCC(=O)O)NC(=O)[C@](C)(NC(=O)[C@H](CC(C)C)NC(=O)[C@H](CC(N)=O)NC(C)=O)CCCCCCC=CCCC[C@@](C)(C(=O)N[C@@H](CCC(=O)O)C(=O)N[C@@H](CC(C)C)C(=O)N[C@@H](CC(N)=O)C(N)=O)NC(=O)[C@H](CC(C)C)NC(=O)[C@H](CC(C)C)NC1=O [Peptide 2029, Ac-NLR8ELDK(myristoyl)LLS5ELN-NH2] (Ac-NL[R8]ELDK(Myristoyl)LL[S5]ELN-NH2; staple 3-10) | – | 19.5 µM | – | – | –
10 | CC(=O)N[C@@H](CC(N)=O)C(=O)N[C@@H](CC(C)C)C(=O)N[C@]1(C)CCCCCCC=CCCC[C@@](C)(C(=O)N[C@@H](CCC(=O)O)C(=O)N[C@@H](CCC(=O)O)C(=O)N[C@@H](CC(N)=O)C(N)=O)NC(=O)[C@H](CC(C)C)NC(=O)[C@H](CC(C)C)NC(=O)[C@H](CCCNC(=N)N)NC(=O)[C@H](CC(=O)O)NC(=O)[C@H](CCC(=O)O)NC(=O)[C@H](CCC(=O)O)NC1=O [Peptide 2014, Ac-NLR8EEDRLLS5EEN-NH2] (Ac-NL[R8]EEDRLL[S5]EEN-NH2; staple 3-10) | – | – | – | – | completely no binding and inhibitory properties
11 | CC(=O)N[C@@H](CC(N)=O)C(=O)N[C@@H](CC(C)C)C(=O)NC(C)(C)C(=O)N[C@@H](CCC(=O)O)C(=O)N[C@@H](CC(C)C)C(=O)N[C@@H](CC(=O)O)C(=O)N[C@@H](CCCNC(=N)N)C(=O)N[C@@H](CC(C)C)C(=O)N[C@@H](CC(C)C)C(=O)NC(C)(C)C(=O)N[C@@H](CCC(=O)O)C(=O)N[C@@H](CC(C)C)C(=O)N[C@@H](CC(N)=O)C(N)=O [Peptide 1912, Ac-NLAibELDRLLAibELN-NH2] | – | – | – | – | lower activity compared to 1907
12 | CC(=O)N[C@]1(C)CCCCCCC=CCCC[C@@](C)(C(N)=O)NC(=O)[C@H](CC(C)C)NC(=O)[C@H](CC(C)C)NC(=O)[C@H](CCCNC(=N)N)NC(=O)[C@H](CC(=O)O)NC(=O)[C@H](CC(C)C)NC(=O)[C@H](CCC(=O)O)NC1=O [Peptide 2011, Ac-R8ELDRLLS5-NH2] (Ac-[R8]ELDRLL[S5]-NH2; staple 1-8) | – | – | – | – | no binding and inhibitory properties
